# According to ChEMBL document CHEMBL1147674, “Evolution of the thienopyridine class of inhibitors of IkappaB kinase-beta: part I: hit-to-lead strategies” (J Med Chem, 2006):
# Molecular target: Cytochrome P450 2D6 (Homo sapiens, UniProt P10635)
# Experiment: Inhibition of CYP2D6
# Type: ADME
# Settings: not given
# Cytochrome P450 2D6, sequence (P10635 whole entry): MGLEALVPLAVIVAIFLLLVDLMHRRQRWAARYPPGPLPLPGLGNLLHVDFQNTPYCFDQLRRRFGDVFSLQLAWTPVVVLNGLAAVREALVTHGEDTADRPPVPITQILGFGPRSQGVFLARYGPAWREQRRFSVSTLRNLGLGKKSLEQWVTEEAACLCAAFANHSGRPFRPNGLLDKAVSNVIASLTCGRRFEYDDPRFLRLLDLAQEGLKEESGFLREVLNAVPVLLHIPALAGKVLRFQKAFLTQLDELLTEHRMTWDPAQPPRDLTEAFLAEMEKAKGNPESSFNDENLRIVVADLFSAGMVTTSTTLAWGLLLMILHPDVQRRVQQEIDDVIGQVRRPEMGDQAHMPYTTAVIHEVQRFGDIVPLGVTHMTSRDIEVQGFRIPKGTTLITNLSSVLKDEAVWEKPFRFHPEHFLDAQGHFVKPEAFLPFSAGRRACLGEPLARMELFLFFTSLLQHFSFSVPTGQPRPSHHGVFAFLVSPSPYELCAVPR
row,IC50 [µM],SMILES
1,> 30,NC(=O)c1nc(-c2ccc(C(F)(F)F)cc2)oc1N
2,> 30,NC(=O)c1sc(-c2ccccc2)cc1N
3,> 30,NC(=O)c1sc(-c2ccc(F)cc2)cc1N
4,> 30,NC(=O)c1nc(-c2ccccc2)oc1N
5,> 30,NC(=O)c1sc2ncccc2c1N
6,> 30,Cc1cc(C)c2c(N)c(C(N)=O)sc2n1

# Molecular target: Cytochrome P450 3A4 (Homo sapiens, UniProt P08684)
# Sequence (P08684 whole entry): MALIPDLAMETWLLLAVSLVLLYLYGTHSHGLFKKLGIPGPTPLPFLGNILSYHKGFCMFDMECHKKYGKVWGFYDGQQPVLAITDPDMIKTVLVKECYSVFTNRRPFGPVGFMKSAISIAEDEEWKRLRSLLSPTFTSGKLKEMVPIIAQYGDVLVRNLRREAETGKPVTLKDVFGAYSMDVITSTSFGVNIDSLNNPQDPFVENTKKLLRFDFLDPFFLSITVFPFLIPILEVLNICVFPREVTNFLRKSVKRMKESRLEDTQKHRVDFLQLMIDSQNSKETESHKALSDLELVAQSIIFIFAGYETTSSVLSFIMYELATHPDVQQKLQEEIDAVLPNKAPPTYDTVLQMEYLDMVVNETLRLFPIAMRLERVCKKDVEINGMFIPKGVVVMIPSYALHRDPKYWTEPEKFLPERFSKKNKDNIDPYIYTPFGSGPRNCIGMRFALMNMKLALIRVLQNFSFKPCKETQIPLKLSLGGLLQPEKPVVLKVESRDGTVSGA
# Experiment: Inhibition of CYP3A4
# Type: ADME
# Settings: not given
row,IC50 [µM],SMILES
1,> 30,NC(=O)c1nc(-c2ccc(C(F)(F)F)cc2)oc1N
2,3.5,NC(=O)c1sc(-c2ccccc2)cc1N
3,2,NC(=O)c1sc(-c2ccc(F)cc2)cc1N
4,> 30,NC(=O)c1nc(-c2ccccc2)oc1N
5,> 30,NC(=O)c1sc2ncccc2c1N
6,> 30,Cc1cc(C)c2c(N)c(C(N)=O)sc2n1

# Molecular target: T1, Inhibitor of nuclear factor kappa-B kinase subunit alpha (Homo sapiens, UniProt O15111)
# T1 sequence (O15111 whole entry): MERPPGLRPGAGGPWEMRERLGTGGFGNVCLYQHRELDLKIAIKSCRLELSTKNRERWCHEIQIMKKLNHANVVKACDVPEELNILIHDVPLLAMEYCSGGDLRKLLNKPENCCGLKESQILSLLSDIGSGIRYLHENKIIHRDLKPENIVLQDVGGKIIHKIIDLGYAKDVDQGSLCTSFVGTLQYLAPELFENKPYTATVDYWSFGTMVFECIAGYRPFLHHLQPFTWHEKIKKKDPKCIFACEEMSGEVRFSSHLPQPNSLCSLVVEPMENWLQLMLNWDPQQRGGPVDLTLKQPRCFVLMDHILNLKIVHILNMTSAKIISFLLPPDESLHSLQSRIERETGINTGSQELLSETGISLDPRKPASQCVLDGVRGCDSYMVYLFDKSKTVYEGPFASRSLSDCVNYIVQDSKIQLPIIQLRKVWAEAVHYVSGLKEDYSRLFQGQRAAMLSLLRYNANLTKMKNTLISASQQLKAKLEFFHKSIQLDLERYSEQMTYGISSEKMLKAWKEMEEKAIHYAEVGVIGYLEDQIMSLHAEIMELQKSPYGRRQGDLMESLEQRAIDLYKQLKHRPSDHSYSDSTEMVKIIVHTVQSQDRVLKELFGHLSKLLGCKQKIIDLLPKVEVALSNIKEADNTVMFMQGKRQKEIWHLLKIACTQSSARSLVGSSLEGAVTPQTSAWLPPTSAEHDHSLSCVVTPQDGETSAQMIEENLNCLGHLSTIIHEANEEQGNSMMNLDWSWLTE
# Experiment: Inhibition of IKK alpha
# Settings: not given
row,IC50 [µM],SMILES
1,> 30,NC(=O)c1nc(-c2ccc(C(F)(F)F)cc2)oc1N
2,> 30,NC(=O)c1sc(-c2ccccc2)cc1N
3,24,NC(=O)c1sc(-c2ccc(F)cc2)cc1N
4,> 30,NC(=O)c1nc(-c2ccccc2)oc1N
5,21,NC(=O)c1sc2ncccc2c1N
6,2.8,Cc1cc(C)c2c(N)c(C(N)=O)sc2n1

# Test system: not listed separately
# Experiment: Inhibition of NF-kappaB luciferase reporter gene in HeLa cells at 10 uM
# Type: functional
# Settings: Homo sapiens
row,SMILES,inhibition at 10 µM [%]
1,NC(=O)c1sc(-c2ccccc2)cc1N,20
2,NC(=O)c1sc(-c2ccc(F)cc2)cc1N,45
3,Cc1cc(C)c2c(N)c(C(N)=O)sc2n1,45

# Test system: HeLa
# Experiment: Viability of HeLa cells at 50 uM by alomar blue assay
# Type: functional, Homo sapiens
# Settings: not given
row,SMILES,Activity [%]
1,NC(=O)c1nc(-c2ccc(C(F)(F)F)cc2)oc1N,68
2,NC(=O)c1sc(-c2ccccc2)cc1N,100
3,NC(=O)c1sc(-c2ccc(F)cc2)cc1N,100
4,NC(=O)c1nc(-c2ccccc2)oc1N,100
5,NC(=O)c1sc2ncccc2c1N,93
6,Cc1cc(C)c2c(N)c(C(N)=O)sc2n1,68

# Test system: not listed separately
# Experiment: Solubility at pH 7.4
# Type: physicochemical
# Settings: buffer
row,solubility [µg/mL],SMILES
1,13,NC(=O)c1nc(-c2ccc(C(F)(F)F)cc2)oc1N
2,10,NC(=O)c1sc(-c2ccccc2)cc1N
3,7,NC(=O)c1sc(-c2ccc(F)cc2)cc1N
4,32,NC(=O)c1nc(-c2ccccc2)oc1N
5,32,NC(=O)c1sc2ncccc2c1N
6,24,Cc1cc(C)c2c(N)c(C(N)=O)sc2n1

# Molecular target: Cytochrome P450 2C9 (Homo sapiens, UniProt P11712)
# Sequence (P11712 whole entry): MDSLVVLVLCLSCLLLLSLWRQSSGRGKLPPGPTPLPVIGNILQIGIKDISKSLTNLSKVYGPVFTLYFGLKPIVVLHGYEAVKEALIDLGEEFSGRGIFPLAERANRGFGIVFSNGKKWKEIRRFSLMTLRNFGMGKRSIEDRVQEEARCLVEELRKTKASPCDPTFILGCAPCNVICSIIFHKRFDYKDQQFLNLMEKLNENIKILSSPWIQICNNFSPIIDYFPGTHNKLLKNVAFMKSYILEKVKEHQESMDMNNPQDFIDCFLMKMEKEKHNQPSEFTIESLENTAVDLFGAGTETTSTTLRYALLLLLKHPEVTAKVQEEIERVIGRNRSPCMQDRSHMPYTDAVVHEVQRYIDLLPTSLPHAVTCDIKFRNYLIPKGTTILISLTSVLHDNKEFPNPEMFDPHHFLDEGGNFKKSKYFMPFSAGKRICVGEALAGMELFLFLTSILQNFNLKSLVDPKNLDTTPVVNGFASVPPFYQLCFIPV
# Experiment: Inhibition of CYP2C9
# Type: ADME
# Settings: not given
row,IC50 [µM],SMILES
1,> 30,NC(=O)c1nc(-c2ccc(C(F)(F)F)cc2)oc1N
2,26,NC(=O)c1sc(-c2ccccc2)cc1N
3,7,NC(=O)c1sc(-c2ccc(F)cc2)cc1N
4,> 50,NC(=O)c1nc(-c2ccccc2)oc1N
5,> 30,NC(=O)c1sc2ncccc2c1N
6,> 30,Cc1cc(C)c2c(N)c(C(N)=O)sc2n1

# Molecular target: T2, Inhibitor of nuclear factor kappa-B kinase subunit beta (Homo sapiens, UniProt O14920)
# T2 sequence (O14920 whole entry): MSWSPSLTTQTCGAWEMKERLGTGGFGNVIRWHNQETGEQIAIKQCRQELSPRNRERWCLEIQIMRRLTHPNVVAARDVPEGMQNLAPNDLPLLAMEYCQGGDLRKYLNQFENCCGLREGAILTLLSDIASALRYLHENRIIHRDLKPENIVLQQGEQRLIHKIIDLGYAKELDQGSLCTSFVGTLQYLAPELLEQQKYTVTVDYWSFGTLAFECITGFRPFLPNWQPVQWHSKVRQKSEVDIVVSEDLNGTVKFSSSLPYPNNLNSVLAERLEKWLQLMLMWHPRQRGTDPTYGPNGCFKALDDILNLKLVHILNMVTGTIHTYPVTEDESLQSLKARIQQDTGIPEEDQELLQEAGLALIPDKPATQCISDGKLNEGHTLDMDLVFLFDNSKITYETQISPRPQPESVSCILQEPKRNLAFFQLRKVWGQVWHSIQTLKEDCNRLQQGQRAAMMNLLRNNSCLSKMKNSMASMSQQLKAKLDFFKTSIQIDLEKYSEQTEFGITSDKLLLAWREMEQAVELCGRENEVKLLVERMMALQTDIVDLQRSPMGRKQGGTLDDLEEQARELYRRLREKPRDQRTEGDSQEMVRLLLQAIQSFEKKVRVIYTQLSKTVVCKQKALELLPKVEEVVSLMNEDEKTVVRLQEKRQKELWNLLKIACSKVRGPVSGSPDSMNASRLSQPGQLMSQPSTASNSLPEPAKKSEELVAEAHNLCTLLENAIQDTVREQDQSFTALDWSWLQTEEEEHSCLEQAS
# Settings: not given
row,IC50 [µM],SMILES
1,13.6,NC(=O)c1nc(-c2ccc(Cl)cc2)oc1N
2,> 50,NC(=O)c1ccc(-c2ccc(Cl)cc2)s1
3,13.9,COc1cccc(-c2nc(C(N)=O)c(N)o2)c1
4,2.9,COc1ccc(-c2cc(N)c(C(N)=O)s2)cc1
5,8,NC(=O)c1nc(-c2ccc(C(F)(F)F)cc2)oc1N
6,12.7,Cc1ccc(-c2nc(C(N)=O)c(N)o2)cc1
7,10.3,CCC(=O)Nc1cc(-c2ccccc2)sc1C(N)=O
8,1.1,NC(=O)c1sc(-c2ccccc2)cc1N
9,5,CNc1cc(-c2ccc(F)cc2)sc1C(N)=O
10,12.6,NC(=O)c1sc2ccccc2c1N
11,> 30,COC(=O)c1sc(-c2ccccc2)cc1N
12,> 32.5,NC(=O)c1nc(C2CCCCC2)oc1N
13,4.7,NC(=O)c1nc(-c2ccsc2)oc1N
14,6.6,NC(=O)c1sc(-c2ccc(Cl)cc2)cc1N
15,14.5,NC(=O)c1cc(-c2ccccc2)ccc1N
16,35.7,NC(=O)c1nc(-c2cccnc2)oc1N
17,> 27.5,Cc1nc2sc(C(N)=O)c(N)c2c(C)c1Cl
18,> 23.5,CN(C)c1cc(-c2ccc(F)cc2)sc1C(N)=O
19,4.6,NC(=O)c1nc(-c2cc3ccccc3s2)oc1N
20,> 15.5,O=c1[nH]cnc2cc(-c3ccccc3)sc12
21,2.6,NC(=O)c1sc(-c2ccc(F)cc2)cc1N
22,11,NC(=O)c1nc(-c2ccccc2)oc1N
23,7.4,NC(=O)c1sc2ncccc2c1N
24,2.2,Cc1cc(C)c2c(N)c(C(N)=O)sc2n1

row,SMILES,IC50 [µM]
1,NC(=O)c1sc(-c2ccsc2)cc1N,1.3

# Test system: not listed separately
# Experiment: Inhibition of ICAM1 expression in HeLa cells at 10 uM
# Type: functional
# Settings: Homo sapiens
row,SMILES,inhibition at 10 µM [%]
1,NC(=O)c1sc(-c2ccccc2)cc1N,42
2,NC(=O)c1sc(-c2ccc(F)cc2)cc1N,48
3,Cc1cc(C)c2c(N)c(C(N)=O)sc2n1,42

# Molecular target: Tyrosine-protein kinase BTK (Homo sapiens, UniProt Q06187)
# Sequence (Q06187 whole entry): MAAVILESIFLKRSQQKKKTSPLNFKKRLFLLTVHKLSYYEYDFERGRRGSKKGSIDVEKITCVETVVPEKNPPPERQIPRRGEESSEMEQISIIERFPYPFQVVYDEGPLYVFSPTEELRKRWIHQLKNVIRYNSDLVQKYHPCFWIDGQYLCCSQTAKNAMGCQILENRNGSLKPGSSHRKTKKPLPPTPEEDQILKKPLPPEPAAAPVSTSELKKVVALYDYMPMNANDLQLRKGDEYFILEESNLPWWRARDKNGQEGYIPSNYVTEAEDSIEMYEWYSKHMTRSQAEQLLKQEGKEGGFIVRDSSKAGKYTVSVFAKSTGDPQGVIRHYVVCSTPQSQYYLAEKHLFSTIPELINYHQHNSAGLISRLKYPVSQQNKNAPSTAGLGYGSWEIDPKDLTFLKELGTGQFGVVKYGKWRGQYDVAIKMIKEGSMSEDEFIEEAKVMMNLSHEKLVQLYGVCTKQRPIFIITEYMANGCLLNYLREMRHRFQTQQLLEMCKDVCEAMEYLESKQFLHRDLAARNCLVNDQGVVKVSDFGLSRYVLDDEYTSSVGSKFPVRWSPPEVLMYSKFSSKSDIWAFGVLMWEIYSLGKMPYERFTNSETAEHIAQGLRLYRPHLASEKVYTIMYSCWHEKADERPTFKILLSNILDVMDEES
# Experiment: Inhibition of BTK
# Settings: not given
row,IC50 [µM],SMILES
1,15.1,NC(=O)c1sc(-c2ccccc2)cc1N
2,4.1,Cc1cc(C)c2c(N)c(C(N)=O)sc2n1

# Molecular target: cAMP-dependent protein kinase (PKA) (Homo sapiens, UniProt P22694+P17612+P22612)
# Experiment: Inhibition of PKA
# Type: protein assay
# Settings: not given
row,IC50 [µM],SMILES
1,27,Cc1cc(C)c2c(N)c(C(N)=O)sc2n1

# Test system: not listed separately
# Experiment: Half life in human liver microsome
# Type: ADME
# Settings: liver microsomes
row,half-life [min],SMILES
1,15,NC(=O)c1nc(-c2ccc(C(F)(F)F)cc2)oc1N
2,22,NC(=O)c1sc(-c2ccccc2)cc1N
3,12,NC(=O)c1sc(-c2ccc(F)cc2)cc1N
4,68,NC(=O)c1nc(-c2ccccc2)oc1N
5,146,NC(=O)c1sc2ncccc2c1N
6,78,Cc1cc(C)c2c(N)c(C(N)=O)sc2n1

# Molecular target: Cytochrome P450 2C19 (Homo sapiens, UniProt P33261)
# Sequence (P33261 whole entry): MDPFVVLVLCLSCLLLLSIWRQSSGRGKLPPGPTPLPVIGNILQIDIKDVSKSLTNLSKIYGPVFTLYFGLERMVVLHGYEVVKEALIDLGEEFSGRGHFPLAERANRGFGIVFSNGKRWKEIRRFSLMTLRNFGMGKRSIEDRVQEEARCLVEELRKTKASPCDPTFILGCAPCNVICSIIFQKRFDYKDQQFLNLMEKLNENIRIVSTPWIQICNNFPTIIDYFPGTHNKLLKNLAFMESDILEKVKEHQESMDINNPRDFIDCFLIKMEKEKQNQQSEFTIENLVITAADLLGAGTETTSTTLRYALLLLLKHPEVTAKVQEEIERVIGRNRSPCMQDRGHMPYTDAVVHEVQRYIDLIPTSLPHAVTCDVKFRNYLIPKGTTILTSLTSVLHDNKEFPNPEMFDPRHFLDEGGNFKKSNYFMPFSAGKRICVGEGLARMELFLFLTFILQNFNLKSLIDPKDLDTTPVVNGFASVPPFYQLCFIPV
# Experiment: Inhibition of CYP2C19
# Type: ADME
# Settings: not given
row,IC50 [µM],SMILES
1,> 30,NC(=O)c1nc(-c2ccc(C(F)(F)F)cc2)oc1N
2,> 30,NC(=O)c1sc(-c2ccccc2)cc1N
3,4,NC(=O)c1sc(-c2ccc(F)cc2)cc1N
4,> 30,NC(=O)c1nc(-c2ccccc2)oc1N
5,> 30,NC(=O)c1sc2ncccc2c1N
6,> 30,Cc1cc(C)c2c(N)c(C(N)=O)sc2n1

# Test system: not listed separately
# Experiment: Permeability from apical to basolateral side of Caco-2 cell membrane
# Type: ADME, cell-based
# Settings: human, read-out: permeability
row,Papp A→B [×10⁻⁶ cm/s],SMILES
1,18.9,NC(=O)c1nc(-c2ccc(C(F)(F)F)cc2)oc1N
2,9.3,NC(=O)c1sc(-c2ccccc2)cc1N
3,19.3,NC(=O)c1sc(-c2ccc(F)cc2)cc1N
4,6.4,NC(=O)c1nc(-c2ccccc2)oc1N
5,12.8,NC(=O)c1sc2ncccc2c1N
6,13.6,Cc1cc(C)c2c(N)c(C(N)=O)sc2n1

# Molecular target: T3, Cytochrome P450 1A2 (Homo sapiens, UniProt P05177)
# T3 sequence (P05177 whole entry): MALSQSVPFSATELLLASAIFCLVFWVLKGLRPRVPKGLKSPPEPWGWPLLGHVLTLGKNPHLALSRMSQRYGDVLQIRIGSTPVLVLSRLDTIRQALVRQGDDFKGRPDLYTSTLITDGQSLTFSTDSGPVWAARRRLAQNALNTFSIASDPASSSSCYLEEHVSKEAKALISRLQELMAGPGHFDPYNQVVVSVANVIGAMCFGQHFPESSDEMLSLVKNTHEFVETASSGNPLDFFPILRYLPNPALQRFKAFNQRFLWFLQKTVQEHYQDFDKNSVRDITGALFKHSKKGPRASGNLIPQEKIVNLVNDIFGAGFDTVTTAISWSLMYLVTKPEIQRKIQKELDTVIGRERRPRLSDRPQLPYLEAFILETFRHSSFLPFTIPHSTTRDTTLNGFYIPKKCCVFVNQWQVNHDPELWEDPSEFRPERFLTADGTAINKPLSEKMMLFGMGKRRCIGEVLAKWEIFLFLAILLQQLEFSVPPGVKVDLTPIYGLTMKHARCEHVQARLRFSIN
# Experiment: Inhibition of CYP1A2
# Type: ADME
# Settings: not given
row,IC50 [µM],SMILES
1,> 30,NC(=O)c1nc(-c2ccc(C(F)(F)F)cc2)oc1N
2,5,NC(=O)c1sc(-c2ccccc2)cc1N
3,12,NC(=O)c1sc(-c2ccc(F)cc2)cc1N
4,> 30,NC(=O)c1nc(-c2ccccc2)oc1N
5,> 30,NC(=O)c1sc2ncccc2c1N
6,> 30,Cc1cc(C)c2c(N)c(C(N)=O)sc2n1

# Test system: HeLa
# Experiment: Viability of HeLa cells at 10 uM by alomar blue assay
# Type: functional, Homo sapiens
# Settings: not given
row,SMILES,Activity [%]
1,NC(=O)c1nc(-c2ccc(C(F)(F)F)cc2)oc1N,100
2,Cc1cc(C)c2c(N)c(C(N)=O)sc2n1,100
